Measurements as given in the CheMixHub ionic liquid set.
± gives the uncertainty stated by the source.

Assay: xn = mol fraction of the nth substance listed
Conditions: 100 kPa

C[NH2+]CCC=C1c2ccccc2CCc2ccccc21.[Cl-] + CCCCCC[n+]1ccn(C)c1.[Br-] + O
viscosity [mPa·s]
Conditions	288.15 K	298.15 K	308.15 K	318.15 K
x1 = 0.0002039, x2 = 0.00126	1.185 ± 0.044	0.957 ± 0.043	0.792 ± 0.043	0.677 ± 0.043
x1 = 0.000208, x2 = 0.0001801	1.17 ± 0.044	0.938 ± 0.043	0.775 ± 0.043	0.658 ± 0.043
x1 = 0.0002218, x2 = 0.0007201	1.178 ± 0.044	0.948 ± 0.043	0.785 ± 0.043	0.658 ± 0.043
x1 = 0.0005639, x2 = 0.0001801	1.181 ± 0.044	0.948 ± 0.043	0.785 ± 0.043	0.667 ± 0.043
x1 = 0.0005652, x2 = 0.001259	1.196 ± 0.044	0.967 ± 0.043	0.802 ± 0.043	0.688 ± 0.043
x1 = 0.0005656, x2 = 0.0007199	1.189 ± 0.044	0.957 ± 0.043	0.794 ± 0.043	0.667 ± 0.043
x1 = 0.0009086, x2 = 0.0007196	1.201 ± 0.044	0.967 ± 0.043	0.803 ± 0.043	0.676 ± 0.043
x1 = 0.0009302, x2 = 0.00018	1.192 ± 0.044	0.958 ± 0.043	0.795 ± 0.043	0.676 ± 0.043
x1 = 0.0009557, x2 = 0.001259	1.208 ± 0.044	0.978 ± 0.043	0.812 ± 0.043	0.699 ± 0.043
x1 = 0.001281, x2 = 0.001258	1.22 ± 0.044	0.989 ± 0.043	0.822 ± 0.043	0.709 ± 0.043
x1 = 0.001285, x2 = 0.0001799	1.204 ± 0.044	0.969 ± 0.043	0.805 ± 0.043	0.685 ± 0.043
x1 = 0.001294, x2 = 0.0007194	1.213 ± 0.044	0.977 ± 0.043	0.812 ± 0.043	0.685 ± 0.043
x1 = 0.001641, x2 = 0.0001799	1.217 ± 0.044	0.98 ± 0.043	0.815 ± 0.043	0.694 ± 0.043
x1 = 0.001649, x2 = 0.0007191	1.226 ± 0.044	0.988 ± 0.043	0.821 ± 0.043	0.694 ± 0.043
x1 = 0.001666, x2 = 0.001258	1.233 ± 0.044	1.001 ± 0.043	0.832 ± 0.043	0.719 ± 0.043
x1 = 0.001985, x2 = 0.0001798	1.23 ± 0.044	0.991 ± 0.043	0.825 ± 0.043	0.703 ± 0.043
x1 = 0.002032, x2 = 0.0007188	1.239 ± 0.044	0.999 ± 0.043	0.831 ± 0.043	0.703 ± 0.043
x1 = 0.002034, x2 = 0.001257	1.246 ± 0.044	1.013 ± 0.043	0.843 ± 0.043	0.728 ± 0.043
x1 = 0.002348, x2 = 0.0001797	1.244 ± 0.044	1.002 ± 0.043	0.835 ± 0.043	0.712 ± 0.043
x1 = 0.002385, x2 = 0.0007186	1.253 ± 0.044	1.012 ± 0.043	0.842 ± 0.043	0.712 ± 0.043
x1 = 0.002389, x2 = 0.001257	1.26 ± 0.044	1.025 ± 0.043	0.854 ± 0.043	0.737 ± 0.043
x1 = 0.00272, x2 = 0.0001797	1.258 ± 0.044	1.014 ± 0.043	0.845 ± 0.043	0.721 ± 0.043
x1 = 0.002762, x2 = 0.0007183	1.267 ± 0.044	1.025 ± 0.043	0.854 ± 0.043	0.721 ± 0.043
x1 = 0.002776, x2 = 0.001256	1.275 ± 0.044	1.037 ± 0.043	0.865 ± 0.043	0.746 ± 0.043
x1 = 0.003079, x2 = 0.0001796	1.273 ± 0.044	1.026 ± 0.043	0.855 ± 0.043	0.73 ± 0.043
x1 = 0.003114, x2 = 0.000718	1.282 ± 0.044	1.037 ± 0.043	0.866 ± 0.043	0.731 ± 0.043
x1 = 0.003126, x2 = 0.001256	1.291 ± 0.044	1.049 ± 0.043	0.876 ± 0.043	0.755 ± 0.043
x1 = 0.003445, x2 = 0.0001796	1.288 ± 0.044	1.038 ± 0.043	0.865 ± 0.043	0.739 ± 0.043
x1 = 0.003472, x2 = 0.001255	1.307 ± 0.044	1.063 ± 0.043	0.888 ± 0.043	0.764 ± 0.043
x1 = 0.003507, x2 = 0.0007177	1.297 ± 0.044	1.05 ± 0.043	0.878 ± 0.043	0.741 ± 0.043
